Data set [1] in a line: Thermal analysis (DSC) of the crystals. Type of data set: physicochemical. The conditions noted are these: 25-300° C., 20° C./min, dry nitrogen gas 50 mL/min. As for the experimental part:
For thermal analysis, the measurement was performed in a dry nitrogen gas stream (50 mL/min) from 25° C. to 300° C. at a temperature rise rate of 20° C./min.
For identification of the solvate form of the present invention, a powder X-ray diffraction apparatus (manufactured by Bruker) GADDS detector system and a thermal analysis equipment (manufactured by Mettler-Toledo) DSC822e system were used. The powder X-ray diffraction pattern was measured at room temperature using CuKα as a monochromator within the 2θ angle range of 1.5-41.5°. The thermal analysis was performed in a dry nitrogen gas stream (50 mL/min) from 25° C. to 300° C. at a temperature rise rate of 20° C./min.
Using the white solids obtained in Examples 1 and 2 as sample 1 (hydrochloride salt) and sample 2 (calcium salt), respectively, the thermal analysis was performed under the following conditions.
apparatus: DSC822e manufactured by Metter-Toledo temperature rise rate: 20° C./min atmosphere: dry nitrogen gas 50 mL/min measurement temperature: 25-300° C.
Using the solid obtained in Example 3 as sample 3 (2,2,2-[…] hydrate crystal), the thermal analysis was performed under the following conditions.

In a further data set the test system is cardiomyocytes. The following applies: cited from earlier work.

For `Cc1ccc(N2CCNCC2)c(S(=O)(=O)O)c1.OCC(F)(F)F` [Sample 3, 5-methyl-2-(piperazin-1-yl)benzenesulfonic acid 2,2,2-tetrafluoroethanolate], in data set [1], the “crystal stability by thermal analysis” value was “stable”; the “no noticeable endothermic and exothermic peaks up to (temperature)” value is “around 80 °C”.

Regarding `Cc1ccc(N2CCNCC2)c(S(=O)(=O)O)c1` [compound A, 5-methyl-2-(piperazin-1-yl)benzenesulfonic acid], the “excessive influx of calcium ions into cardiomyocytes” value in the data set with cardiomyocytes was “remarkably suppresses”.

Take `Cc1ccc(N2CCNCC2)c(S(=O)(=O)O)c1.Cl` [sample 1, 5-methyl-2-(piperazin-1-yl)benzenesulfonic acid hydrochloride]: in data set [1], the “crystal stability by thermal analysis” value is on record as “stable”; the “no noticeable endothermic and exothermic peaks up to (temperature)” value was determined as 200 °C.

“Calcium 5-methyl-2-(piperazin-1-yl)benzenesulfonate [sample 2]”: in data set [1], the “crystal stability by thermal analysis” value is reported as “stable”; the “no noticeable endothermic and exothermic peaks up to (temperature)” value worked out at 200 °C.

The values are drawn from US20100004266A1, “Salt or Solvate of 5-Methyl-2(Piperazin-1-Yl)Benzenesulfonic Acid” (Mitsubishi Tanabe Pharma Corporation, priority 2006, published 2010).
